# According to patent US6303596A, “Use of taurolidine for treatment of leukemias” (priority 2000, dated 2001):
# What was measured:
# [1] = system: REH; assay: LDH release (cell membrane integrity), REH; assay type: cell-based; conditions: Homo sapiens, 4 h, read-out: LDH (% of total)
# Procedure: FIGS. 8A and 8B depict cell viability and growth rates for REH cell line following taurolidine treatment, in terms of % trypan blue negative cells and % cell number, respectively. Cells were treated with various concentrations of taurolidine for 4 hours in AIM-V+0.01% BCS. After aliquots were collected for LDH assay, the remainder of the culture was rinsed in HBSS and resuspended in RPMI+10% BCS without taurolidine. Counts of trypan blue-negative cells (FIG. 8A), and total cell number (FIG. 8B), were recorded daily thereafter (with the measurement at Day 1 being made immediately after the 4 hour taurolidine treatment). Conditions were: no treatment (open circles); 25 μg/ml taurolidine (closed circles); 50 μg/ml taurolidine (open squares); 100 μg/ml taurolidine (closed squares); and vehicle alone (closed triangles). Doubling times were determined under each condition, and expressed as a percentage of the rate of doubling of untreated cells. […]
# In these experiments, integrity of cell membranes following taurolidine treatment was assessed by exclusion of trypan blue and by measuring the release of LDH in MM6, K-562, HL-60, and REH cells. […] A parallel aliquot of cells was lysed by three cycles of freeze/thaw and the quantity of LDH released was taken to be 100%. […]
# ^a LDH was measured immediately after four hour taurolidine treatment.
# [2] = system: MM6 cells; assay: DNA fragmentation, agarose gel electrophoresis, MM6; assay type: cell-based, human
# Procedure: FIG. 13 is an agarose gel depicting DNA fragmentation in response to taurolidine treatment as determined by assay procedures. MM6 cells were incubated with taurolidine or vehicle in RPMI+10% BCS for four hours. Cells were harvested and low molecular weight DNA extracted as described below. C=control cells without taurolidine or vehicle treatment; T=treated with 50 μg/ml taurolidine; V=treated with vehicle alone; and MW=molecular weight markers.
# Following treatment with either taurolidine or the vehicle solution, cell death was assessed in one of two ways. In the first method, the DNA fragmentation pattern characteristic of apoptosis was detected by extracting low molecular weight DNA from cells using a phosphate-citrate buffer (Darzynkiewicz, et al., "Assays of cell viability: discrimination of cells dying by apoptosis," Methods Cell Biol 41:15 (1994)) and subjecting the extracted DNA to agarose gel electrophoresis.
# Apoptosis is associated with fragmentation of genomic DNA in the internucleosomal linker regions, which can be visualized as a characteristic ladder of DNA fragments upon gel electrophoresis. Arends, M. J. and Wyllie, A. H., "Apoptosis: mechanisms and roles in pathology," Int Rev Exp Path 32:223 (1991). Accordingly, low molecular weight DNA was extracted from taurolidine-treated MM6 cells and subjected to electrophoresis in agarose gels.
# [3] = system: GM5387; assay: TUNEL / propidium iodide flow cytometry, GM5387; assay type: cell-based, human; conditions: GM5387, 6 hours after treatment
# Procedure: In the second method, DNA fragmentation was detected via TUNEL assay according to the manufacturer's instructions. With this methodology, 2×10^6 cells were fixed with 2% paraformaldehyde, permeabilized with 0.1% Triton X-100/0.1% citrate, incubated at 37° C. with terminal deoxynucleotidyl transferase and FITC-dUTP, rinsed and analyzed by flow cytometry. Enhanced FITC signal indicates apoptosis-specific DNA fragmentation. Gavriali, et al, "Identification of programmed cell death in situ via specific labeling of nuclear DNA fragmentation," J Cell Biol 119:493 (1992). Parallel aliquots of unfixed cells were treated with PI and FITC-conjugated anti-CD14 and analyzed by flow cytometry, in order to identify cells with permeable cell membranes (since PI binds to DNA but is excluded from cells with intact plasma membranes) and also to determine the cell-specificity of the apoptotic signal.
# In another study, TUNEL assays were performed on all cell lines 6 hours after cells were initially exposed to taurolidine (cells were treated for 4 hours, rinsed, and then incubated for 2 more hours before TUNEL assay was performed).
# . Taurolidine and anisomycin induced apoptosis in MM6, HL-60, and Jurkat cells (Table VIII). MM6 and HL-60 cells were similarly effected, with >80% TUNEL-positive cells after 6 hours. […]
# Data are percent of total cell-size events, and are expressed as mean ± […]
smiles,measurement,setting,value
"O=S1(=O)CCN(CN2CCS(=O)(=O)NC2)CN1 [taurolidine, 4,4'-methylenebis(perhydro-1,2,4-thiadiazin 1,1-dioxide)]",cytotoxicity at 50 µg/mL,[1]; 50 μg/ml,6%
same,cytotoxicity at 100 µg/mL,[1]; 100 μg/ml,5%
same,DNA fragmentation ladder,"[2]; MM6, 50 μg/ml taurolidine, 4 h, no LPS",prominent ladder pattern of DNA fragments
same,DNA fragmentation ladder,"[2]; MM6, LPS present during taurolidine treatment",identical results
same,DNA fragmentation (TUNEL positivity),[3],did not demonstrate evidence for fragmentation of DNA
